Data: ChEMBL document CHEMBL1152546, “N-[2-chloro-9H-purin-6-yl]-N-cyclopropylglycylamino acids and derivatives: synthesis, evaluation as a class of novel analgesics, and 3D QSAR analysis” (2009)

What was measured:
Mus musculus [1] = assay: Analgesic activity in ICR mouse assessed as pain threshold variation at 20 umol/kg, ip administered as single dose measured after 90 mins by tail flick test relative to control; format: functional
Mus musculus [2] = assay: Analgesic activity in ICR mouse assessed as pain threshold variation at 20 umol/kg, ip administered as single dose measured after 150 mins by tail flick test relative to control; format: functional
Mus musculus [3] = assay: Analgesic activity in ICR mouse assessed as pain threshold variation at 20 umol/kg, ip administered as single dose measured after 30 mins by tail flick test relative to control; format: functional
Mus musculus [4] = assay: Analgesic activity in ICR mouse assessed as pain threshold variation at 20 umol/kg, ip administered as single dose measured after 60 mins by tail flick test relative to control; format: functional
Mus musculus [5] = assay: Analgesic activity in ICR mouse assessed as pain threshold variation at 20 umol/kg, ip administered as single dose measured after 180 mins by tail flick test relative to control; format: functional
Mus musculus [6] = assay: Analgesic activity in ICR mouse assessed as pain threshold variation at 20 umol/kg, ip administered as single dose measured after 120 mins by tail flick test relative to control; format: functional
Mus musculus [7] = assay: Analgesic activity in ICR mouse assessed as pain threshold variation at 6.25 umol/kg, po administered as single dose measured after 60 mins by tail flick test relative to control; format: functional
Mus musculus [8] = assay: Analgesic activity in ICR mouse assessed as pain threshold variation at 25 umol/kg, po administered as single dose measured after 120 mins by tail flick test relative to control; format: functional
Mus musculus [9] = assay: Analgesic activity in ICR mouse assessed as pain threshold variation at 6.25 umol/kg, po administered as single dose measured after 120 mins by tail flick test relative to control; format: functional
Mus musculus [10] = assay: Analgesic activity in ICR mouse assessed as pain threshold variation at 6.25 umol/kg, po administered as single dose measured after 180 mins by tail flick test relative to control; format: functional
Mus musculus [11] = assay: Analgesic activity in ICR mouse assessed as pain threshold variation at 12.5 umol/kg, po administered as single dose measured after 30 mins by tail flick test relative to control; format: functional
Mus musculus [12] = assay: Analgesic activity in ICR mouse assessed as pain threshold variation at 6.25 umol/kg, po administered as single dose measured after 150 mins by tail flick test relative to control; format: functional
Mus musculus [13] = assay: Analgesic activity in ICR mouse assessed as pain threshold variation at 6.25 umol/kg, po administered as single dose measured after 90 mins by tail flick test relative to control; format: functional
Mus musculus [14] = assay: Analgesic activity in ICR mouse assessed as pain threshold variation at 12.5 umol/kg, po administered as single dose measured after 90 mins by tail flick test relative to control; format: functional
Mus musculus [15] = assay: Analgesic activity in ICR mouse assessed as pain threshold variation at 25 umol/kg, po administered as single dose measured after 90 mins by tail flick test relative to control; format: functional
Mus musculus [16] = assay: Analgesic activity in ICR mouse assessed as pain threshold variation at 6.25 umol/kg, po administered as single dose measured after 30 mins by tail flick test relative to control; format: functional
Mus musculus [17] = assay: Analgesic activity in ICR mouse assessed as pain threshold variation at 25 umol/kg, po administered as single dose measured after 60 mins by tail flick test relative to control; format: functional
Mus musculus [18] = assay: Analgesic activity in ICR mouse assessed as pain threshold variation at 25 umol/kg, po administered as single dose measured after 30 mins by tail flick test relative to control; format: functional
Mus musculus [19] = assay: Analgesic activity in po dosed ICR mouse assessed as pain threshold variation administered as single dose measured after 30 to 180 mins by tail flick test; format: functional, organism-based
Mus musculus [20] = assay: Analgesic activity in ICR mouse assessed as pain threshold variation at 12.5 umol/kg, po administered as single dose measured after 60 mins by tail flick test relative to control; format: functional
Mus musculus [21] = assay: Analgesic activity in ICR mouse assessed as pain threshold variation at 12.5 umol/kg, po administered as single dose measured after 180 mins by tail flick test relative to control; format: functional
Mus musculus [22] = assay: Analgesic activity in ICR mouse assessed as pain threshold variation at 25 umol/kg, po administered as single dose measured after 180 mins by tail flick test relative to control; format: functional
Mus musculus [23] = assay: Analgesic activity in ICR mouse assessed as pain threshold variation at 12.5 umol/kg, po administered as single dose measured after 120 mins by tail flick test relative to control; format: functional
Mus musculus [24] = assay: Analgesic activity in ICR mouse assessed as pain threshold variation at 25 umol/kg, po administered as single dose measured after 150 mins by tail flick test relative to control; format: functional
Mus musculus [25] = assay: Analgesic activity in ICR mouse assessed as pain threshold variation at 12.5 umol/kg, po administered as single dose measured after 150 mins by tail flick test relative to control; format: functional

| Compound | Activity (Mus musculus [7]) | Activity (Mus musculus [8]) | Activity (Mus musculus [9]) | Activity (Mus musculus [10]) | Activity (Mus musculus [11]) | Activity (Mus musculus [12]) | Activity (Mus musculus [13]) | Activity (Mus musculus [14]) | Activity (Mus musculus [15]) | Activity (Mus musculus [16]) | Activity (Mus musculus [17]) | Activity (Mus musculus [18]) | Activity (Mus musculus [19]) | Activity (Mus musculus [20]) | Activity (Mus musculus [21]) | Activity (Mus musculus [22]) | Activity (Mus musculus [23]) | Activity (Mus musculus [24]) | Activity (Mus musculus [25]) | further results |
| --- | --- | --- | --- | --- | --- | --- | --- | --- | --- | --- | --- | --- | --- | --- | --- | --- | --- | --- | --- | --- |
| CN1CC[C@]23c4c5ccc(O)c4O[C@H]2[C@@H](O)C=C[C@H]3[C@H]1C5 [MORPHINE] | – | – | – | – | – | – | – | – | – | – | – | – | – | – | – | – | – | – | – | Activity (Mus musculus [1]): 122.7%; Activity (Mus musculus [2]): 36.7%; Activity (Mus musculus [3]): 147%; Activity (Mus musculus [4]): 177.6%; Activity (Mus musculus [5]): 32.9%; Activity (Mus musculus [6]): 64.9% |
| N=C(N)NCCC[C@H](NC(=O)CN(c1nc(Cl)nc2[nH]cnc12)C1CC1)C(=O)O | 17.53% | 17.03% | 9.52% | 2.15% | 22.24% | 5.09% | 12.08% | 18.43% | 27.59% | 8.9% | 50.97% | 45.41% | Dose-dependent effect | 39.76% | 5.24% | 5.19% | 10.28% | 7.19% | 6.93% | – |
| O=C(CN(c1nc(Cl)nc2[nH]cnc12)C1CC1)NCC(=O)OCc1ccccc1 | 13.19% | 21.69% | 8.04% | 2.64% | 11.25% | 3.47% | 9.93% | 19% | 27.18% | 5.73% | 41.91% | 18.65% | Dose-dependent effect | 23.74% | 5.45% | 8.31% | 14.62% | 17.99% | 6.2% | – |
